Assay results reported in PMC2730992 (Molecular and biochemical parasitology, 2009).

T1: Tb AdoMetDC/Tc Prozyme (Trypanosoma brucei, UniProt P50244)
T1 sequence (P50244 1-85): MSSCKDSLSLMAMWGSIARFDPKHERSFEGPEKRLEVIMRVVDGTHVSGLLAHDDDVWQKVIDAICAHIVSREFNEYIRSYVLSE
T1 sequence (P50244 86-370): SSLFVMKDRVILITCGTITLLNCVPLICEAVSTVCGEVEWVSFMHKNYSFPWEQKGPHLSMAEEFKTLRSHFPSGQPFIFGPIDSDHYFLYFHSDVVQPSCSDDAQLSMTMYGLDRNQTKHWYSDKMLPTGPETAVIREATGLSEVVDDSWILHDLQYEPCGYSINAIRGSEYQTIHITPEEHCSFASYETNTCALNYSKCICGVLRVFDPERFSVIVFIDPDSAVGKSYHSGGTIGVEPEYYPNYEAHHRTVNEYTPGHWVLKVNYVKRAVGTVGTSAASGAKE
T1 sequence (Q4DQQ6 1-326 partner): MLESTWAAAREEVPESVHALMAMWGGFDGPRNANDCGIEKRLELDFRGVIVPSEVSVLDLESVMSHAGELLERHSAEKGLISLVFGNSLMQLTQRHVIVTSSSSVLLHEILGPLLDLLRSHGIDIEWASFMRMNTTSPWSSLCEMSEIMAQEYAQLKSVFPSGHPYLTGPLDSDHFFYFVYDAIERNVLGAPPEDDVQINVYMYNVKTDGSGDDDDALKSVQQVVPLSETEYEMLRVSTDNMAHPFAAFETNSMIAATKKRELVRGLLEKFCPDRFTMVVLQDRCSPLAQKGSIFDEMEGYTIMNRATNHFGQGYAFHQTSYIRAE

T2: Tc AdoMetDC/Tb Prozyme (Trypanosoma cruzi, UniProt O76240)
T2 sequence (O76240 1-85): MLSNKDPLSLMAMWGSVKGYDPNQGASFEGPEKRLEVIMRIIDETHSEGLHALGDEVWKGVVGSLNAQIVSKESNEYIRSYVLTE
T2 sequence (O76240 86-370): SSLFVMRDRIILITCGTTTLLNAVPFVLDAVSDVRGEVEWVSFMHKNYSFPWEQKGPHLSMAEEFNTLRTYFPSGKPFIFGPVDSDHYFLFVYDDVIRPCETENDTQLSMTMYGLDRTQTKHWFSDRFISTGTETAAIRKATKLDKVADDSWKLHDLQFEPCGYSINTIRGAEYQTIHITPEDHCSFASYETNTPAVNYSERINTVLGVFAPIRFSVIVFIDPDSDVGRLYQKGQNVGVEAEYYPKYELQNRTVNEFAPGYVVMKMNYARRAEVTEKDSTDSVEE
T2 sequence (A5HNV6 1-325 partner): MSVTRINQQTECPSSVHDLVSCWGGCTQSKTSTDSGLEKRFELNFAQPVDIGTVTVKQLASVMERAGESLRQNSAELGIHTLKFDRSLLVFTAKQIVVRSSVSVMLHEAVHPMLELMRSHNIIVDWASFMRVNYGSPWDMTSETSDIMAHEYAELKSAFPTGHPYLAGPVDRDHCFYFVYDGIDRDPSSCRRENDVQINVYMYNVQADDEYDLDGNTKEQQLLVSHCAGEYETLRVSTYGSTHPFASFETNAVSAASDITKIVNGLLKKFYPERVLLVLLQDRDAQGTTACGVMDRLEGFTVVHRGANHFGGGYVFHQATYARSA

B1: Tc AdoMetDC/Tb Prozyme (Trypanosoma cruzi) (protein)
chain 1: MLSNKDPLSLMAMWGSVKGYDPNQGASFEGPEKRLEVIMRIIDETHSEGLHALGDEVWKGVVGSLNAQIVSKESNEYIRSYVLTE
chain 2: SSLFVMRDRIILITCGTTTLLNAVPFVLDAVSDVRGEVEWVSFMHKNYSFPWEQKGPHLSMAEEFNTLRTYFPSGKPFIFGPVDSDHYFLFVYDDVIRPCETENDTQLSMTMYGLDRTQTKHWFSDRFISTGTETAAIRKATKLDKVADDSWKLHDLQFEPCGYSINTIRGAEYQTIHITPEDHCSFASYETNTPAVNYSERINTVLGVFAPIRFSVIVFIDPDSDVGRLYQKGQNVGVEAEYYPKYELQNRTVNEFAPGYVVMKMNYARRAEVTEKDSTDSVEE

How the values were obtained:
Tb AdoMetDC/Tc Prozyme = target: T1, Tb AdoMetDC/Tc Prozyme; format: biochemical; conditions: 5 mM putrescine; allosteric activator; pH 8.0, 37 °C
Tc AdoMetDC/Tb Prozyme = target: T2, Tc AdoMetDC/Tb Prozyme; format: biochemical; conditions: 5 mM putrescine; allosteric activator; pH 8.0, 37 °C
purified protein = substrate: C[S+](CC[C@H](N)C(=O)O)C[C@H]1O[C@@H](n2cnc3c(N)ncnc32)[C@H](O)[C@@H]1O; test: purified protein; conditions: pH 8.0; 37.0 °C

Row | Molecule | activation of AdoMet decarboxylation, 14CO2 trapping (Tb AdoMetDC/Tc Prozyme) | activation of AdoMet decarboxylation, 14CO2 trapping (Tc AdoMetDC/Tb Prozyme) | Km (purified protein)
1 | NCCCCN [putrescine] | when putrescine was included, both cross-species heterodimers were further activated | when putrescine was included, both cross-species heterodimers were further activated | 
2 | B1 |  |  | 440 ± 14 µM
